Measured values from publication PMC9236245, “Glycyrrhiza uralensis promote the metabolism of toxic components of Aconitum carmichaeli by CYP3A and alleviate the development of chronic heart failure” (PLoS ONE, 2022).
Values joined by “and” are separate entries in the source; they are usually repeats but may differ in a detail not shown here. Identical values can stand only once.

Key:
Type in all cases: in vivo
CYP3A1 mRNA = CYP3A1 mRNA expression in rat liver after 14 days dosing (RT-PCR); conditions: positive induction 0.08 g/kg/D, single replicates
Description: (§1) All animal procedures, including killing, were approved by the Institutional Animal Care and Use Committee at Medical College of Shanghai University of TCM. 25 SD rats, weighing 180–200 g, were purchased from Shanghai SLAC Laboratory Animal company and fed in SPF environmental condition. The rats were randomly divided into negative control, phenobarbital positive induction (0.08 g / kg / D) and Glycyrrhiza groups with different concentrations (0.33 g / kg / D, 1 g / kg / D and 3 g / kg / D), with 5 rats in each group, intragastric administration for 14 days. The phenobarbital induced group was given intraperitoneal injection three days before treatment. The animals were killed by CO2 asphyxiation, liver microsomes were prepared and were used to detect the expression of CYP3A1 / 2 mRNA in liver tissue.
(§2) Total RNA was extracted using Trizol reagent according to the manufacturer’s instructions. 1μg of total RNA was transcribed to cDNA using the PrimeScriptTM RT Master Mix kit (TaKaRa, China). Quantitative RT-PCR was performed in a reaction volume of 20μL cDNA on ABI system (Applied Biosystems, Life Technologies). The average cycle thresholds (Ct) were employed to quantify fold-change. The 2^-△△CT method was reported to calculate relative gene expression levels.

CYP3A2 mRNA = CYP3A2 mRNA expression in rat liver after 14 days dosing (RT-PCR); conditions: positive induction 0.08 g/kg/D, single replicates
Description: as §1, §2

CHF rat model = assay: ATP, ADP and AMP in left ventricular myocardium (HPLC) of ADR-induced CHF rats; conditions: 5 mL/kg/D gavage 4 weeks
Method: According to reference, the rat model of CHF was established by intraperitoneal injection of ADR (2.5 mg / kg) once a week for six weeks. 6 weeks later, the rats were randomly divided into model group, Aconitum (0.3 g / mL), Glycyrrhizae combind with Aconitum (0.6 g / mL) and Captopril (1.25 mg / mL) group. Each treatment group was given 5 mL / kg / D by gavage for 4 weeks, the normal and model group were given the same volume of distilled water by gavage. After the last administration, the rats were killed by CO2 asphyxia, and the indexes were determined.
Weighed 100 mg of left ventricular myocardium of rats, cut into pieces, added 500 μL 4.2% perchloric acid, homogenized in ice bath, 3 000 r / min, 4°C for 15 min. Took 200 μL of the supernatant, added 135 μL of 1 mol / L NaOH, adjusted the pH to about 6.0, shaked and mixed, 8 000 r / min, 4°C for 10 min, and took 20 μL of the supernatant for HPLC analysis. There was a good linear relationship between the peak area measured by HPLC and the concentrations of ATP, AMP and ADP, and the content was calculated according to the standard curve.

`CCC1(c2ccccc2)C(=O)NC(=O)NC1=O` [Phenobarbital] was tested. Which “CYP3A1 mRNA” value (CYP3A1 mRNA) did it give?
The value was 8.832 and 7.88 and 8.097.

And the “CYP3A2 mRNA” value (CYP3A2 mRNA)?
The value was 3.986 and 3.344 and 3.449.

Which “ADP level in left ventricular myocardium, difference vs model group” value (CHF rat model) does the source give for `C[C@H](CS)C(=O)N1CCC[C@H]1C(=O)O` [captopril, Captopril] here?
The value was -0.07185 ± 0.02716.
